Several values for one entry are separate records, joined by “and”; a condition that tells them apart may be missing. Equal values may be shown once. Toxic doses and inconclusive results are not listed.
Tested on: CD2F1 mice, L1210 leukemia ip, survival T/C
Test: NCI In Vivo Anticancer Drug Screen. Data for tumor model L1210 Leukemia (intraperitoneal) in CD2F1 (CDF1) mice
Details: higher = longer survival
Method in brief: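 Transplantable tumor in mice; compound-treated vs vehicle-treated groups. Read-out = treated/control ratio of the measured endpoint.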

[1] = endpoint: mean survival time, dose: 100.0 mg/kg/injection, schedule: Q01DX009 (ip), vehicle: saline with Tween-80
[2] = endpoint: mean survival time, dose: 100.0 mg/kg/injection, schedule: Q04DX003 (ip), vehicle: saline with Tween-80
[3] = endpoint: mean survival time, dose: 200.0 mg/kg/injection, schedule: Q01DX009 (ip), vehicle: saline with Tween-80
[4] = endpoint: mean survival time, dose: 200.0 mg/kg/injection, schedule: Q04DX003 (ip), vehicle: saline with Tween-80
[5] = endpoint: mean survival time, dose: 400.0 mg/kg/injection, schedule: Q01DX009 (ip), vehicle: saline with Tween-80
[6] = endpoint: mean survival time, dose: 400.0 mg/kg/injection, schedule: Q04DX003 (ip), vehicle: saline with Tween-80
[7] = endpoint: mean survival time, dose: 100.0 mg/kg/injection, schedule: Q04DX002 (ip), vehicle: saline with Tween-80
[8] = endpoint: mean survival time, dose: 50.0 mg/kg/injection, schedule: Q01DX009 (ip), vehicle: saline with Tween-80
[9] = endpoint: mean survival time, dose: 25.0 mg/kg/injection, schedule: Q01DX009 (ip), vehicle: saline with Tween-80
[10] = endpoint: mean survival time, dose: 50.0 mg/kg/injection, schedule: Q04DX003 (ip), vehicle: saline with Tween-80
[11] = endpoint: mean survival time, dose: 200.0 mg/kg/injection, schedule: Q04DX002 (ip), vehicle: saline with Tween-80

COC1=C(OCc2ccccc2)C(=O)OC1C(O)CO (configuration not stated)
T/C (endpoint: mean survival time, dose: 100.0 mg/kg/injection, schedule: Q01DX001 (ip), vehicle: saline with Tween-80): 98 % of control
T/C (endpoint: mean survival time, dose: 200.0 mg/kg/injection, schedule: Q01DX001 (ip), vehicle: saline with Tween-80): 97 % of control
T/C (endpoint: mean survival time, dose: 400.0 mg/kg/injection, schedule: Q01DX001 (ip), vehicle: saline with Tween-80): 93 % of control

Nc1ccc2c(S(=O)(=O)O)ccc(O)c2c1
T/C [1]: 100 % of control
T/C [2]: 96 % of control
T/C [3]: 93 % of control
T/C [4]: 96 % of control
T/C [5]: 90 % of control
T/C [6]: 98 % of control

C/C=C(\Br)C(=O)O
T/C (endpoint: mean survival time, dose: 25.0 mg/kg/injection, schedule: Q04DX002 (ip), vehicle: saline with Tween-80): 101 % of control
T/C (endpoint: mean survival time, dose: 50.0 mg/kg/injection, schedule: Q04DX002 (ip), vehicle: saline with Tween-80): 101 % of control
T/C [7]: 104 % of control

Nc1nnnn1C1CCCCC1
T/C [4]: 106 % of control
T/C [5]: 92 % of control
T/C [6]: 97 % of control

CCNC(=S)NNc1ccccc1
T/C [8]: 103 % of control
T/C [1]: 100 % of control
T/C [3]: 88 % of control

Cc1ccc(S(=O)(=O)N(CC(=O)O)c2cccc(Cl)c2)cc1
T/C (endpoint: mean survival time, dose: 100.0 mg/kg/injection, schedule: Q01DX009 (ip), vehicle: Klucel (hydroxypropylcellulose) (HPC)): 101 % of control
T/C (endpoint: mean survival time, dose: 200.0 mg/kg/injection, schedule: Q01DX009 (ip), vehicle: Klucel (hydroxypropylcellulose) (HPC)): 98 % of control
T/C (endpoint: mean survival time, dose: 400.0 mg/kg/injection, schedule: Q01DX009 (ip), vehicle: Klucel (hydroxypropylcellulose) (HPC)): 100 % of control

CCN(CC)CCNc1ccc(C)c2sc3ccccc3c(=O)c12
T/C (endpoint: mean survival time, dose: 7.5 mg/kg/injection, schedule: Q01DX005 (ip), vehicle: water): 103 % of control
T/C (endpoint: mean survival time, dose: 15.0 mg/kg/injection, schedule: Q01DX005 (ip), vehicle: water): 104 % of control
T/C (endpoint: mean survival time, dose: 25.0 mg/kg/injection, schedule: Q01DX007 (ip), vehicle: saline): 121 % of control
T/C (endpoint: mean survival time, dose: 25.0 mg/kg/injection, schedule: Q01DX009 (ip), vehicle: saline): 118 % of control
T/C (endpoint: mean survival time, dose: 25.0 mg/kg/injection, schedule: Q03DX003 (ip), vehicle: saline): 107 % of control
T/C (endpoint: mean survival time, dose: 25.0 mg/kg/injection, schedule: Q04DX003 (ip), vehicle: saline): 107 % of control
T/C (endpoint: mean survival time, dose: 30.0 mg/kg/injection, schedule: Q01DX005 (ip), vehicle: water): 106 % of control
T/C (endpoint: mean survival time, dose: 50.0 mg/kg/injection, schedule: Q03DX003 (ip), vehicle: saline): 112 % of control
T/C (endpoint: mean survival time, dose: 50.0 mg/kg/injection, schedule: Q04DX003 (ip), vehicle: saline): 114 % of control
T/C (endpoint: mean survival time, dose: 100.0 mg/kg/injection, schedule: Q01DX007 (ip), vehicle: saline): 163 % of control
T/C (endpoint: mean survival time, dose: 100.0 mg/kg/injection, schedule: Q01DX009 (ip), vehicle: saline): 171 % of control
T/C (endpoint: mean survival time, dose: 120.0 mg/kg/injection, schedule: Q01DX005 (ip), vehicle: water): 110 % of control
T/C (endpoint: median survival time, dose: 6.25 mg/kg/injection, schedule: Q01DX009 (ip), vehicle: water): 116 % of control
T/C (endpoint: median survival time, dose: 12.5 mg/kg/injection, schedule: Q01DX009 (ip), vehicle: water): 121 % of control
T/C (endpoint: median survival time, dose: 25.0 mg/kg/injection, schedule: Q01DX009 (ip), vehicle: saline with Tween-80): 114 % of control
T/C (endpoint: median survival time, dose: 25.0 mg/kg/injection, schedule: Q01DX009 (ip), vehicle: saline): 116 % of control and 120 % of control and 100 % of control
T/C (endpoint: median survival time, dose: 50.0 mg/kg/injection, schedule: Q01DX009 (ip), vehicle: water): 165 % of control
T/C (endpoint: median survival time, dose: 100.0 mg/kg/injection, schedule: Q01DX009 (ip), vehicle: saline with Tween-80): 198 % of control
T/C (endpoint: median survival time, dose: 100.0 mg/kg/injection, schedule: Q01DX009 (ip), vehicle: water): 112 % of control
T/C (endpoint: median survival time, dose: 200.0 mg/kg/injection, schedule: Q01DX009 (ip), vehicle: saline with Tween-80): 118 % of control

O=P1(N(CCCl)CCCl)NCC2(O1)C1CC3CC(C1)CC2C3 (configuration not stated)
T/C (endpoint: mean survival time, dose: 15.6 mg/kg/injection, schedule: Q01DX001 (ip), vehicle: distilled water + Tween-80): 101 % of control
T/C (endpoint: mean survival time, dose: 31.3 mg/kg/injection, schedule: Q01DX001 (ip), vehicle: distilled water + Tween-80): 96 % of control
T/C (endpoint: mean survival time, dose: 62.5 mg/kg/injection, schedule: Q01DX001 (ip), vehicle: distilled water + Tween-80): 101 % of control
T/C (endpoint: mean survival time, dose: 125.0 mg/kg/injection, schedule: Q01DX001 (ip), vehicle: distilled water + Tween-80): 96 % of control
T/C (endpoint: mean survival time, dose: 250.0 mg/kg/injection, schedule: Q01DX001 (ip), vehicle: distilled water + Tween-80): 96 % of control
T/C (endpoint: mean survival time, dose: 500.0 mg/kg/injection, schedule: Q01DX001 (ip), vehicle: distilled water + Tween-80): 91 % of control

CCOC1(C)OC2OC(COC(c3ccccc3)(c3ccccc3)c3ccccc3)C(O)C(O)C2O1 (configuration not stated)
T/C (endpoint: mean survival time, dose: 12.5 mg/kg/injection, schedule: Q01DX009 (ip), vehicle: other): 97 % of control
T/C (endpoint: mean survival time, dose: 25.0 mg/kg/injection, schedule: Q01DX009 (ip), vehicle: other): 103 % of control
T/C (endpoint: mean survival time, dose: 50.0 mg/kg/injection, schedule: Q01DX009 (ip), vehicle: other): 101 % of control
T/C (endpoint: mean survival time, dose: 100.0 mg/kg/injection, schedule: Q01DX009 (ip), vehicle: other): 98 % of control
T/C (endpoint: mean survival time, dose: 200.0 mg/kg/injection, schedule: Q01DX009 (ip), vehicle: other): 101 % of control

O=C1CCCC(=O)N1CCCCCCN1C(=O)CCCC1=O
T/C [1]: 94 % of control
T/C [2]: 100 % of control
T/C [3]: 108 % of control
T/C [4]: 101 % of control
T/C [6]: 101 % of control

COC(=O)CCC(C)(c1ccc(O)cc1)c1ccc(O)cc1
T/C [2]: 103 % of control
T/C [4]: 97 % of control
T/C [6]: 91 % of control

CC1(C)C(O)C(C)(C)C1O (configuration not stated)
T/C [9]: 93 % of control
T/C [8]: 98 % of control
T/C [2]: 97 % of control

Cc1ccccc1OCc1ccccc1
T/C [10]: 104 % of control
T/C [2]: 98 % of control and 101 % of control
T/C [4]: 102 % of control and 104 % of control
T/C [6]: 94 % of control

COC(=O)C1C(=O)CC2N(C)C1C(C)(C)C2(C)C (configuration not stated)
T/C [7]: 115 % of control
T/C [11]: 107 % of control

CC(O)(c1ccc(Cl)cc1)c1ccc(Cl)cc1
T/C [2]: 106 % of control
T/C [4]: 101 % of control
T/C [6]: 90 % of control

O=C(O)C1CCCN1C(=O)c1ccccc1 (configuration not stated)
T/C [2]: 103 % of control
T/C [4]: 93 % of control
T/C [6]: 98 % of control

CCCCNC(C)(C)C(SSC(c1ccc(Cl)cc1)C(C)(C)NCCCC)c1ccc(Cl)cc1 (configuration not stated)
T/C (endpoint: mean survival time, dose: 6.25 mg/kg/injection, schedule: Q01DX009 (ip), vehicle: saline with Tween-80): 96 % of control
T/C (endpoint: mean survival time, dose: 12.5 mg/kg/injection, schedule: Q01DX009 (ip), vehicle: saline with Tween-80): 98 % of control
T/C [9]: 96 % of control and 100 % of control
T/C (endpoint: mean survival time, dose: 25.0 mg/kg/injection, schedule: Q04DX003 (ip), vehicle: saline with Tween-80): 90 % of control
T/C [10]: 92 % of control
T/C [2]: 95 % of control and 96 % of control

CCN1CCS/C1=C\C=C\C1=[N+](CC)CCS1
T/C (endpoint: mean survival time, dose: 1.25 mg/kg/injection, schedule: Q01DX001 (ip), vehicle: other): 98 % of control
T/C (endpoint: mean survival time, dose: 2.5 mg/kg/injection, schedule: Q01DX001 (ip), vehicle: other): 101 % of control

CC(C)(C)c1cc(O)c(O)c(C(C)(C)C)c1
T/C (endpoint: mean survival time, dose: 100.0 mg/kg/injection, schedule: Q04DX003 (ip), vehicle: other): 101 % of control
T/C (endpoint: mean survival time, dose: 200.0 mg/kg/injection, schedule: Q04DX003 (ip), vehicle: other): 95 % of control

O=C(OCCOC(=O)N1CCOCC1)N1CCOCC1
T/C [7]: 101 % of control
T/C [11]: 97 % of control
T/C (endpoint: mean survival time, dose: 400.0 mg/kg/injection, schedule: Q04DX002 (ip), vehicle: saline with Tween-80): 101 % of control

Nc1ncnc2nc(-c3ccc(OCc4ccccc4)cc3)[nH]c12
T/C (endpoint: mean survival time, dose: 100.0 mg/kg/injection, schedule: Q01DX001 (ip), vehicle: Klucel (hydroxypropylcellulose) (HPC)): 97 % of control
T/C (endpoint: mean survival time, dose: 200.0 mg/kg/injection, schedule: Q01DX001 (ip), vehicle: Klucel (hydroxypropylcellulose) (HPC)): 89 % of control
T/C (endpoint: mean survival time, dose: 400.0 mg/kg/injection, schedule: Q01DX001 (ip), vehicle: Klucel (hydroxypropylcellulose) (HPC)): 95 % of control

OC1CC2CC1C1C=CCC21 (configuration not stated)
T/C [8]: 95 % of control
T/C [1]: 98 % of control
T/C [2]: 93 % of control
T/C [3]: 93 % of control
T/C [4]: 93 % of control

O=C(OCC1OC(n2nc(N3CCOCC3)c(=O)[nH]c2=O)C(OC(=O)c2ccccc2)C1OC(=O)c1ccccc1)c1ccccc1 (configuration not stated)
T/C (endpoint: mean survival time, dose: 12.5 mg/kg/injection, schedule: Q01DX005 (ip), vehicle: distilled water + Tween-80): 98 % of control
T/C (endpoint: mean survival time, dose: 25.0 mg/kg/injection, schedule: Q01DX005 (ip), vehicle: distilled water + Tween-80): 103 % of control
T/C (endpoint: mean survival time, dose: 50.0 mg/kg/injection, schedule: Q01DX005 (ip), vehicle: distilled water + Tween-80): 92 % of control

CN1C(=O)CN(CCN2CC(=O)N(c3ccccc3)C2=S)C1=S
T/C [8]: 93 % of control
T/C [1]: 93 % of control
T/C [3]: 89 % of control

— PubChem BioAssay AID256 (DTP/NCI, 2004)
